Results published in patent publication US12226374B2, “Compositions comprising quinone and/or quinol and methods of preparations and use thereof” (American River Nutrition, LLC, priority 2019, dated 2025).

Tests used:
Type in all cases: physicochemical
[1] = CoQone mixed directly with AP (binary mixture) at elevated temperature: total CoQ degradation; details: about 75° C., about 3 days
Method: (§1) The weight ratios of CoQone to CoQnol in the mixture were determined by HPLC using a modified method disclosed by Mattila (Mattila et al., 2000), which is incorporated by reference in its entirety. Samples were extracted from the mixing vessel under inert gas flush and the mixing vessel was then flushed with inert gas prior to resealing. Samples were dissolved in chloroform and then analyzed on a Waters Symmetry C18 column (5 μm, 4.6×250 mm) at about 35° C. The mobile phase (1.8 mL/min) was methanol:ethanol:2-propanol (53:25:22) with UV detection at 275 nm for CoQone and 290 nm for CoQnol. The retention times were about 5.7 min for CoQnol and about 8.8 min for CoQone, respectively. The HPLC method described herein was utilized in subsequent examples.
CoQone was added to an appropriately sized mixing vessel and melted at about 52° C. (±3°) while stirring. AP was added to the mixing vessel with CoQone to form a mixture. The mixture was gently stirred at about 52° C. (±3°) until no apparent dry AP was visible. The mixing vessel was then flushed with a neutral, non-oxygenated gas until atmospheric air was displaced and the mixing vessel was sealed airtight. This mixture was then mixed at elevated temperature for several days with periodic flushing of inert gas with the CoQone to CoQnol conversion rate being monitored.

[2] = CoQone solubilized in GG as binary mixture: dissolution and degradation; details: CoQone about 25% / GG about 75%
Method: as §1
GG was added to an appropriately sized mixing vessel and heated to about 52° C. (±3°) while stirring. CoQone was added to the mixing vessel with GG to form a mixture. The mixture was stirred at about 52° C. (±3°) until CoQone was completely melted and solubilized in GG to attain a translucent solution. The mixing vessel was then flushed with a neutral, non-oxygenated gas until atmospheric air was displaced and the mixing vessel was sealed airtight. This mixture was then mixed for several days.

[3] = Stability of CoQ10 at elevated temperatures in CoQ:AP:GG mixture (HPLC)
Method: as §1
GG was added to an appropriately sized mixing vessel and heated to about 52° C. (±3°) while stirring. CoQone was added to the mixing vessel with GG to form a mixture. The mixture was stirred at about 52° C. (±3°) until CoQone was completely melted and solubilized in GG to attain a translucent solution. Then AP was added to the translucent solution, which was stirred until no visible dry AP was left on the surface. […] This mixture was then mixed at elevated temperature for 10 days with periodic flushing of neutral, non-oxygenated gas where the CoQnol conversion rate and the total amount of CoQ (both CoQnol and CoQone) were monitored.

[4] = Headspace comparison of inert gases (nitrogen vs argon): total CoQ10 loss; details: CoQ10:AP:GG about 4:2:4, about 52° C., about 6-7 days
Method: as §1
CoQ10, AP, and GG are provided in the weight ratio of about 4:2:4. The three components were placed in a mixing vessel kept stirred at about 52° C. (±3°). The mixing vessel was flushed with a neutral, non-oxygenated gas until atmospheric air was displaced entirely by Nitrogen […] or Argon (Ar) and sealed airtight. This mixture was then stirred at elevated temperatures for about 6-7 days until the target CoQnol conversion rate was reached.

[5] = Manufacture production batch (20 kg) and softgels: total CoQ loss and stability; details: 20 kg CoQone:AP:GG batch, argon, about 52° C., about six days
Method: A manufacture batch was run according the preparation methods set forth in Example 1 with the following modifications. The total amount of CoQone:AP:GG mixtures was 20 kg. Argon was used to flush the mixing vessel until the atmospheric air was displaced. After the mixing vessel was sealed air-tight, this mixture of CoQone:AP:GG was then stirred at about 52° C. (±2°) for about six days with periodic flushing of Argon for about every 24 hours.
The final composition in the sealed vessel was placed in a hopper for the encapsulation process in a softgel assembly line. The finished softgels were analyzed to determine that the weight percentage of CoQnol in total amount of CoQnol and CoQone is about 93%. […] Softgels are hermetically sealed and the contents within the softgels are expected to be stable for at least about 2 years.

total CoQ10 degraded [1]: about 21%
dissolution of CoQ10 in GG ([2]; about 52° C.): completely dissolved
degradation of CoQ ([2]; after about 3 weeks, inert gas): nor was there any degradation
loss of total CoQ10 ([3]; about 3-5 days at about 50-55° C., initial ratio CoQ:AP:GG 1:1:1): less than 5%
loss of total CoQ (both CoQone and CoQnol) ([3]; about 8-10 days at about 50-55° C., fixed initial ratio CoQ:AP:GG about 1:1:1, inert gas with periodic flushing): about 15%
total loss of CoQ10 ([4]; argon-filled headspace): less than 0.5%
total CoQ10 loss ([4]; nitrogen-filled headspace): about 7%
loss of the total CoQ [5]: without any measurable loss
SMILES: COC1=C(OC)C(=O)C(C/C=C(\C)CC/C=C(\C)CC/C=C(\C)CC/C=C(\C)CC/C=C(\C)CC/C=C(\C)CC/C=C(\C)CC/C=C(\C)CC/C=C(\C)CCC=C(C)C)=C(C)C1=O [CoQ10]
